Laboratory results from patent US20250270159A1, “1-(CYCLOBUTANEMETHYLIDENE)-2, 4, 5-TRIMETHOXYBENZENE COMPOUND AND PREPARATION METHOD AND USE THEREOF” (CHENGDU XINRUI TAIKANG TECHNOLOGY CO., LTD., priority 2023, published 2025).

How the values were obtained:
IL-1 = IL-1 in cerebral cortex of TBI rats; assay type: in vivo, SD rats; details: 30 mg/kg ip 2 h after TBI; 24 h after administration; FIG. 3
Protocol: The experimental grouping and drug administration plan were as follows. • Sham operation group (Group P): saline was given with the same volume as in the CTMB group; • Model group (T group): a blank emulsion was given with the same volume as in the CTMB group; • Medium dose group (Group M): a dose of 30 mg/kg of CTMB emulsion injection was given.
The experimental grouping and drug administration plan were the same as the test 3. After 2 h of the TBI modeling, different groups of rats were administered intraperitoneally. After 24 h of the administration, the rats were deeply anesthetized, the head was severed and the brain was removed, about 60-120 mg of hemisphere cortex was taken out from the hemisphere on the blood side, 10 times the volume of ice-cold centrifugal buffer used for biochemical assays was added, homogenization was carried out in an ice bath for 10 min, and centrifugation was carried out at 4° C. and 14000 rpm/min for 30 min. The supernatant was extracted, and inflammatory factors IL-1, IL-6, and TNF-α were tested according to the instructions of IL-1, IL-6, and TNF-α assay kits, respectively.

[1] = tested on: ischemic stroke induced by the filament technique in rats; test: Acute phase of ischemic stroke induced by the filament technique (MCAO), short-term neurological deficit score; assay type: in vivo; details: for mNSS score / Garcia score: 24 h after MCAO modeling; for mNSS score: scale 0-18, higher worse; for Garcia score: scale 3-18, lower worse
Protocol: Zea Longa score was used to determine whether the modeling was successful after 2 h of MCAO surgery, and rats with successful modeling were taken and randomly grouped for administering drugs.
The rats were randomly divided into a sham operation group (Sham group, given a blank emulsion with a volume equal to that of the high-dose CTMB group), a model group (Vehicle group, given a blank emulsion with a volume equal to that of the high-dose CTMB group), a low-dose CTMB group (CTMB-L group, 10 mg/kg), a high-dose CTMB group (CTMB-H group, 20 mg/kg), and an edaravone dexborneol injection concentrated solution group (EDB group, commercially available, 3 mg/kg). 10 rats were included in each group, which were administered by intraperitoneal injection. It should be noted that in the experiment, the mode of administration for rats was intraperitoneal injection, and a ratio of the effective dose of CTMB, the active ingredient in the emulsion injection, to the unit mass of the human body was within a range of 0.2 mg-4.0 mg/kg, which referred to the ratio of the effective dose of CTMB, the active ingredient in the emulsion injection, to the unit mass of the human body during intravenous infusion, which was extrapolated from the effective dose of the rats. Considering the different bioavailability, peak concentration, and peak time of the drug due to different species and different modes of administration, the effective dose of the active ingredient CTMB in the emulsion injection to the unit mass of human body was finally determined to be 0.2 mg-4.0 mg/kg through conversion.
The rats were fasted for 12 h before procedure, and the rats were anesthetized with 10% chloral hydrate (350 mg/kg, i.p.). The rats were fixed in the supine position, and the body temperature was maintained at about 37° C. For neck preparation, a median neck incision was made, the muscle and fascia were separated along the inner edge of the sternocleidomastoid muscle to expose the right side, the common carotid artery (CCA), external carotid artery (ECA), and internal carotid artery (ICA) were separated bluntly, and the lines were disposed of proximally in the CCA proximal end, ICA, and ECA for backup. The CCA proximal end and ECA were ligatured, and an arterial clip was used to temporarily close the ICA, then a small hole was poked at a position of CCA having about 4 mm from the bifurcation with a needle. The filament was inserted into the ICA through the CCA, the arterial clipped on ICA was loosened, and the filament was slowly advanced. When the mark on the filament reached the bifurcation and a slight resistance was felt, the thin wire at ICA was tightened, and saline was used to clean the wound and then suture was performed. The sham procedure was the same as the experimental group except that no filament was inserted. […]
Referring to the Zea Longa Neurologic Function Score (Longa EZ, Weinstein PR, Carlson S, Cummins R. Reversible middle cerebral artery occlusion without craniectomy in rats. Stroke. 1989 January; 20(1):84-91. doi: 10.1161/01.str.20.1.84.), rats were scored after 2 h of procedure when they were awake from anesthesia. […]
The neural function of the rats was comprehensively evaluated after 24 h of modeling using the modified mNSS score and Garcia score, and mNSS scoring criteria was shown in Table 3 and Garcia scoring criteria was shown in Table 4. The rats were evaluated for locomotion, sensation, and climbing, and symmetry of limbs. […]

[2] = tested on: superoxide dismutase (SOD); test: SOD activity in striatum of PD mice; assay type: in vivo, C57 mice; details: Group D, CTMB 20 mg/kg ip, after 4 weeks, injured side
Protocol: The mice were randomly divided into a sham operation group (group S, given a blank emulsion with a volume equal to that of the administered group), a model group (group M, given a blank emulsion with a volume equal to that of the administered group), a CTMB group (20 mg/kg, group D), and a levodopa group (levodopa: benserazide hydrochloride=4:1, 12 mg/kg, group L), each group included 10-12 mice, and all of them were administered intraperitoneally.
Malondialdehyde (MDA) is a commonly used indicator of membrane lipid peroxidation, reduced glutathione (GSH) is one of the most commonly used non-enzymatic indicators of antioxidant substances, and superoxide dismutase (SOD) is a common indicator of antioxidant enzymes. After completing the evaluation of motor function after 4 weeks of drug administration, the mice were deeply anesthetized and perfused with 20 mL of saline via the heart. The brain was rapidly severed to isolate the striatal region on the injured side (right side), weighed, and placed into a 1.5 mL EP tube, and homogenized at low temperature by adding phosphate-buffered saline (PBS) at the ratio of a weight of animal tissues (g) to a volume of homogenization medium (mL) of 1:9. […]

`COc1cc(OC)c(OC)cc1C=C1CCC1` [CTMB, 1-(cyclobutylidenemethyl)-2,4,5-trimethoxybenzene] was tested, and the “content of IL-1 in cerebral cortex tissue” value (IL-1) was “significantly reduced”, the “toxic side effects associated with administration” value ([1]; 10 and 20 mg/kg ip, MCAO rats, acute phase test) was “No toxic side effects” and the mNSS score ([1]; CTMB-H 20 mg/kg ip) was 6.65 ± 2.30^##, **. For the same compound, the Garcia score ([1]; CTMB-H 20 mg/kg ip) was 10.05 ± 1.81^##, **, the mNSS score ([1]; CTMB-L 10 mg/kg ip) was 6.88 ± 2.26^##, ** and the Garcia score ([1]; CTMB-L 10 mg/kg ip) was 9.65 ± 1.02^##, *. It also gave an SOD [2] of 80.24 ± 10.46 U/mg protein.
